ChEMBL document CHEMBL1255548, “Novel bisphosphonate inhibitors of the human farnesyl pyrophosphate synthase” (Bioorg Med Chem Lett, 2010)
pIC50: −log10 of the molar value.

What was measured:
[1] = molecular target: T1, Farnesyl pyrophosphate synthase (Homo sapiens) (UniProt P14324); assay: Inhibition of N-terminal His-tagged human FPPS expressed in Escherichia coli at 1 uM
T1 sequence (whole entry): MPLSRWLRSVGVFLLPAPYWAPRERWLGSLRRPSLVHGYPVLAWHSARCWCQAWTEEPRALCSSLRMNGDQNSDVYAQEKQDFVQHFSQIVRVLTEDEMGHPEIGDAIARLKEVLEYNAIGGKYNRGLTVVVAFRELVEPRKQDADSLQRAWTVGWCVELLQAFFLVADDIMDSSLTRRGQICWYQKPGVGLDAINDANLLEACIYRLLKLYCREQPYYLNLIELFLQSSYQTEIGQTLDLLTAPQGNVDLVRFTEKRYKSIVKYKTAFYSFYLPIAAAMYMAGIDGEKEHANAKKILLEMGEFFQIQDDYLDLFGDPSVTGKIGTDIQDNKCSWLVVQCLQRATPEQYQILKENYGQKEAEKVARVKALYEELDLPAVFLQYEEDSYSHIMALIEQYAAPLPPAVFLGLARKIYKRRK

[2] = molecular target: T2, Farnesyl pyrophosphate synthase (Homo sapiens, UniProt P14324); assay: Inhibition of N-terminal His-tagged human FPPS expressed in Escherichia coli
T2 sequence (P14324 whole entry): T1 sequence (whole entry)

[3] = molecular target: T1, Farnesyl pyrophosphate synthase (Homo sapiens); assay: Inhibition of N-terminal His-tagged human FPPS expressed in Escherichia coli at 10 uM

| Structure (SMILES) | inhibition [1] | pIC50 [2] | inhibition [3] |
| --- | --- | --- | --- |
| O=P(O)(O)C(F)(Cc1cncc(-c2cn[nH]c2)c1)P(=O)(O)O | > 50% | 6.19 | – |
| O=P(O)(O)C(F)(Cc1cncc(-c2cccc3[nH]ncc23)c1)P(=O)(O)O | – | – | 81% |
| O=P(O)(O)C(F)(Cc1cncc(-c2ccc3[nH]ncc3c2)c1)P(=O)(O)O | > 50% | 6.15 | – |
| Cc1noc(C)c1-c1cncc(CC(F)(P(=O)(O)O)P(=O)(O)O)c1 | – | – | 86% |
